Where two headings read alike, the source gives them in different places. Peptide text beside a SMILES is read from it. * marks the point of attachment. Cbz = O=C(OCc1ccccc1)*
Assays:
[1] = tested on: GlyR α1 wt protein in HEK293 cells; assay: Protein degradation analysis on whole cell lysates (Western blot) with proteasome or lysosome inhibitors; format: cell-based, human
Experimental: (§1) HEK293 cells transiently expressing GlyR α1 wt or α1 variants were incubated under standard growth conditions with proteasome or lysosome inhibitors for specific time periods (all inhibitors have been obtained from Sigma-Aldrich, St. Louis, MO, USA). Cells were incubated with 1 μM of MG132 for 1, 2, and 4 h. The lysosome inhibitor leupeptin (200 μg/mL) was incubated for 6, 12, and 24 h together with the transfected cells.
(§2) At each time point, media was aspirated and cells were washed twice with PBS followed by incubation with CytoBuster Protein Extraction Reagent (Merck Millipore, Darmstadt, Germany) supplemented with protease inhibitor for 5 min at room temperature. The resulting cell suspension was centrifuged for 5 min at 16.000 g and 4°C resulting in a supernatant containing solubilized proteins.
(§3) Western Blot Analysis—For SDS-PAGE, 11% polyacrylamide gels were freshly prepared, followed by Western blot on nitrocellulose membranes (GE Healthcare, Freiburg, Germany). Membranes were blocked for 1 h with 5% BSA in TBS-T (TBS with 1% Tween 20). Primary antibodies were incubated overnight at 4°C. GlyR α1 wt and GlyR mutants were detected with the pan-α antibody MAb4a (Synaptic Systems, Göttingen, Germany), recognizing an epitope in the N-terminus of the GlyRs (residues 96–105). In biotinylation experiments, cadherin was chosen as loading control detected by the pan-Cadherin antibody (Cell Signaling Technology, Danvers, MA, USA). For lysate analysis, GAPDH served as a loading control (Calbiochem, Darmstadt, Germany). Signals were detected using the ECLplus system (GE Healthcare, Freiburg, Germany).

[2] = tested on: GlyR α1 T162M protein in HEK293 cells; assay: as above; format: cell-based, human; conditions: for GlyR protein level after lysosomal block: leupeptin 200 μg/mL
Experimental: as §1, §2, §3

GlyR α1 G160S = GlyR α1 G160S (Homo sapiens, UniProt P23415, G188S); conditions: 100 μM glycine
Chain of GlyR α1 G160S (P23415 29-457 G188S): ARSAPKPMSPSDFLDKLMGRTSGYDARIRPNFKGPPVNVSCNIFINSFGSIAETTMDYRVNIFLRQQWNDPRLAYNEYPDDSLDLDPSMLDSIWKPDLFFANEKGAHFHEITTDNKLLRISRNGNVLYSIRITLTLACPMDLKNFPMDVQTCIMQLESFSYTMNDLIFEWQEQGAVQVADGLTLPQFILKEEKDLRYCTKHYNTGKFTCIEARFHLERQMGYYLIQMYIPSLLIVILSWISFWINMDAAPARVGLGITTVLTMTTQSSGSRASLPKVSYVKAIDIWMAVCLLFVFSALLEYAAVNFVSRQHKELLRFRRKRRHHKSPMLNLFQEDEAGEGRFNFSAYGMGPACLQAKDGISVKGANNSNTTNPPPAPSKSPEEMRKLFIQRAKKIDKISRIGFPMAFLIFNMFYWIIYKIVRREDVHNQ
Experimental: (§4) HEK293 cells were transiently transfected using a modified calcium-phosphate precipitation method, were a mixture of plasmid DNA, CaCl2, and 2x HBS buffer (50 mM HEPES, 12 mM glucose, 10 mM KCl, 280 mM NaCl, 1.5 mM Na2HPO4) was applied onto the cells.
(§5) Maximal current amplifications (Imax) were measured by the patch clamp technique in a whole-cell configuration mode. Current signals were amplified with an EPC-9 amplifier (HEKA, Lambrecht, Germany). […] The extracellular buffer consisted of 137 mM NaCl, 5.4 mM KCl, 1.8 mM CaCl2, 1 mM MgCl2, […], 10 mM HEPES, with a pH adjusted to 7.4 with NaOH. The internal buffer was 120 mM CsCl, 20 mM N(Et)4Cl, 1 mM CaCl2, 3 mM MgCl2, 11 mM EGTA, 10 mM HEPES with a pH adjusted to 7.4 with CsOH. Recording pipettes were fabricated from borosilicate capillaries with an open resistance of about 4 MΩ. Current responses were measured at a holding potential of −60 mV. All experiments were carried out at room temperature. Error bars refer to S.E.M. values.

GlyR α1 T162N = GlyR α1 T162N (Homo sapiens, UniProt P23415, T190N); conditions: 100 μM glycine
Chain of GlyR α1 T162N (P23415 29-457 T190N): as the sequence (P23415 29-457 G188S) above, with S160G, T162N counted along it
Experimental: as §4, §5

GlyR α1 G160R = GlyR α1 G160R (Homo sapiens, UniProt P23415, G188R); conditions: 100 μM glycine
Chain of GlyR α1 G160R (P23415 29-457 G188R): as the sequence (P23415 29-457 G188S) above, with S160R counted along it
Experimental: as §4, §5

GlyR α1 T162 mutants = conditions: glycine 3–10 mM
Experimental: as §4, §5

GlyR α1 T162D = GlyR α1 T162D (Homo sapiens, UniProt P23415, T190D)
Chain of GlyR α1 T162D (P23415 29-457 T190D): as the sequence (P23415 29-457 G188S) above, with S160G, T162D counted along it
Experimental: as §4, §5

GlyR α1 T162M = GlyR α1 T162M (Homo sapiens, UniProt P23415, T190M); conditions: 100 μM glycine
Chain of GlyR α1 T162M (P23415 29-457 T190M): as the sequence (P23415 29-457 G188S) above, with S160G, T162M counted along it
Experimental: as §4, §5

GlyR α1 wt = GlyR α1 wt (Homo sapiens, UniProt P23415); conditions: 100 μM glycine
Chain of GlyR α1 wt (P23415 29-457): as the sequence (P23415 29-457 G188S) above, with S160G counted along it
Experimental: as §4, §5

GlyR α1 G160A = GlyR α1 G160A (Homo sapiens, UniProt P23415, G188A); conditions: 100 μM glycine
Chain of GlyR α1 G160A (P23415 29-457 G188A): as the sequence (P23415 29-457 G188S) above, with S160A counted along it
Experimental: as §4, §5

GlyR α1 T162P = GlyR α1 T162P (Homo sapiens, UniProt P23415, T190P); conditions: 100 μM glycine
Chain of GlyR α1 T162P (P23415 29-457 T190P): as the sequence (P23415 29-457 G188S) above, with S160G, T162P counted along it
Experimental: as §4, §5

GlyR α1 T162A = GlyR α1 T162A (Homo sapiens, UniProt P23415, T190A); conditions: 100 μM glycine
Chain of GlyR α1 T162A (P23415 29-457 T190A): as the sequence (P23415 29-457 G188S) above, with S160G, T162A counted along it
Experimental: as §4, §5

SMILES: CC(C)C[C@@H](C=O)NC(=O)[C@H](CC(C)C)NC(=O)[C@H](CC(C)C)NC(=O)OCc1ccccc1 [MG132] (Cbz-Leu-Leu-Leu-aldehyde)
- GlyR protein level after proteasomal block ([1]; 1 μM MG132, 2 h): not affected
- GlyR protein level after proteasomal block ([2]; 1 μM MG132, 2 h, compared to wt): significant increase

SMILES: CC(=O)N[C@@H](CC(C)C)C(=O)N[C@@H](CC(C)C)C(=O)N[C@H](C=O)CCCNC(=N)N [leupeptin]
- GlyR protein level after lysosomal block ([1]; leupeptin 200 μg/mL, 12 h): accumulations
- GlyR protein level after lysosomal block ([2]; 6 h): did not show any differences
- GlyR protein level after lysosomal block ([2]; 12 h, in contrast to wt): reduced protein levels

SMILES: NCC(=O)O [glycine]
- Irel current, % of the wt current (GlyR α1 G160S; G160S): 68 ± 22%
- Imax ± SEM (GlyR α1 G160S; α1 G160S): 1061 ± 359 pA
- Irel current, % of the wt current (GlyR α1 T162N; T162N): 13 ± 3%
- reduction of the wt response (GlyR α1 T162N; T162N): 85%
- Imax ± SEM (GlyR α1 T162N; α1 T162N): 447 ± 96 pA
- Irel current, % of the wt current (GlyR α1 G160R; G160R): 69 ± 10%
- Imax ± SEM (GlyR α1 G160R; α1 G160R): 1089 ± 167 pA
- functionality compared to wt receptors (GlyR α1 T162 mutants): indistinguishable from wt receptors
- Irel current, % of wt currents (GlyR α1 T162D; T162D, 100 μM glycine, measured in two out of five cells): less than 1%
- whole cell maximal currents compared to wt (GlyR α1 T162D; T162D, saturating glycine 10 mM): indistinguishable from GlyR α1 wt
- Imax ± SEM (GlyR α1 T162D; α1 T162D, 100 μM glycine): 10 ± 6 pA
- Irel current, % of I100μM compared to wt (GlyR α1 T162M; T162M): 11 ± 5%
- Imax ± SEM (GlyR α1 T162M; α1 T162M): 309 ± 154 pA
- Imax ± SEM (GlyR α1 wt; wt control of the G160 series): 1571 ± 260 pA
- Imax ± SEM (GlyR α1 wt; wt control of the T162 series): 2916 ± 371 pA
- Irel current, % of the wt current (GlyR α1 G160A; G160A): 92 ± 12%
- Imax ± SEM (GlyR α1 G160A; α1 G160A): 1453 ± 197 pA
- Irel current, % of the wt current (GlyR α1 T162P; T162P): 29 ± 10%
- Imax ± SEM (GlyR α1 T162P; α1 T162P): 832 ± 300 pA
- Irel current, % of maximum current of wt (GlyR α1 T162A; T162A): 4 ± 1%
- Imax ± SEM (GlyR α1 T162A; α1 T162A): 148 ± 45 pA

— publication PMC4686643 (Frontiers in Molecular Neuroscience, 2015)
